Assay results from patent US10800741B2 (ANCUREALL PHARMACEUTICAL (SHANGHAI) CO., LTD., priority 2017, dated 2020).

Key:
NCI-H1581 = NCI-H1581 subcutaneous transplantation tumor model, tumor growth inhibition in vivo; set-up: species or system Bab/c immunodeficient mice; conditions: 17th day after the administration
Description: (§1) Test Example 7 Inhibition of Tumour Cell Growth In Vivo
(§2) In order to establish subcutaneous transplantation tumor models of human non-small cell lung cancer and endometrial adenocarcinoma, Bab/c immunodeficient mice were subcutaneously inoculated with NCI-H1581 (ATCC) and AN3-CA (ATCC) cells, respectively.
(§3) Experimental animals: 6-week female Bab/c immunodeficient mice (about 20 g in weight). The mice were purchased from Shanghai Sippr-BK Experimental Animal Co., Ltd., raised in Animal Center of Shanghai University of Traditional Chinese Medicine, approved by Ethical Committee of Shanghai University of Traditional Chinese Medicine. The breeding environment was SPF grade.
Test samples: the present compounds 66 (purity: 99%), solid powder, stored at 4˜8° C.
Cells and animal models: NCI-H1581 cells were cultured in RPMI 1640 medium containing 10% fetal bovine serum. Log-phase NCI-H1581 cells were collected and re-suspended with PBS to 2.5×10^7 cells per ml for subcutaneous single-point inoculation of Bab/c immunodeficient mice at the right side of the back of mouse (5×10^6 cells, 0.2 ml).
When the tumor volume reached 100˜200 mm^3, the mice were randomly divided according to tumor size. The experiment was divided into solvent control group and drug administration group (compound 66 group). 6 mice in each group were administered 0.1 ml per 10 g body weight by intraperitoneal injection (i.p) once a day. The tumor was measured three times a week, and the tumor volume was calculated as: long diameter×short diameter^2/2. When the average tumor volume of the control group reached 2000 mm^3, the experiment was over and then the tumor was weighed and subjected to molecular pathology assay. Efficacy was assessed based on relative tumor growth inhibition value (TGI), and safety was assessed based on animal weight change.
Preparation of test samples: appropriate amount of compound 66 was weighed and mixed with ultrapure water; and methanesulfonic acid was added for clarification; and then 4M NaOH was added to adjust the PH to 3.8; and a final volume was made up with ultrapure water. The final concentrations were 0.5 mg/ml and 0.25 mg/ml, respectively.
T/C % refers to the relative tumor growth rate, that is, the percentage of relative tumor volume or tumor weight of the administration group and the control group at a certain time point. […]
(§4) Tumor volume data of 17 days after the start of administration were selected for statistical analysis among different groups, and independent sample T test was used to compare whether there were significant differences in relative tumor volume between the administration group and the control group. All data were analyzed using SPSS 18.0. […]

AN3-CA = AN3-CA subcutaneous transplantation tumor model, tumor growth inhibition in vivo; set-up: species or system Bab/c immunodeficient mice; conditions: 5 mg/kg i.p once a day, 17th day after the administration
Description: as §1, §2
as §3, with “grade. […]” for “grade.”
When the tumor volume reached 100˜200 mm^3, the mice were randomly divided according to tumor size. […] The tumor was measured three times a week, and the tumor volume was calculated as: long diameter×short diameter^2/2. […] Efficacy was assessed based on relative tumor growth inhibition value (TGI), and safety was assessed based on animal weight change. […]
as §4

protein kinases = target: T1, protein kinases (Homo sapiens, UniProt P36888, N841I); assay: KINOMEscan in vitro binding to 468 labeled protein kinases; conditions: FLT3(N841I), read-out: Test compound/solvent control (%)
T1 construct: purchased Discovery X company (USA), KINOMEscan screening platform
T1 sequence (P36888 27-993 N841I): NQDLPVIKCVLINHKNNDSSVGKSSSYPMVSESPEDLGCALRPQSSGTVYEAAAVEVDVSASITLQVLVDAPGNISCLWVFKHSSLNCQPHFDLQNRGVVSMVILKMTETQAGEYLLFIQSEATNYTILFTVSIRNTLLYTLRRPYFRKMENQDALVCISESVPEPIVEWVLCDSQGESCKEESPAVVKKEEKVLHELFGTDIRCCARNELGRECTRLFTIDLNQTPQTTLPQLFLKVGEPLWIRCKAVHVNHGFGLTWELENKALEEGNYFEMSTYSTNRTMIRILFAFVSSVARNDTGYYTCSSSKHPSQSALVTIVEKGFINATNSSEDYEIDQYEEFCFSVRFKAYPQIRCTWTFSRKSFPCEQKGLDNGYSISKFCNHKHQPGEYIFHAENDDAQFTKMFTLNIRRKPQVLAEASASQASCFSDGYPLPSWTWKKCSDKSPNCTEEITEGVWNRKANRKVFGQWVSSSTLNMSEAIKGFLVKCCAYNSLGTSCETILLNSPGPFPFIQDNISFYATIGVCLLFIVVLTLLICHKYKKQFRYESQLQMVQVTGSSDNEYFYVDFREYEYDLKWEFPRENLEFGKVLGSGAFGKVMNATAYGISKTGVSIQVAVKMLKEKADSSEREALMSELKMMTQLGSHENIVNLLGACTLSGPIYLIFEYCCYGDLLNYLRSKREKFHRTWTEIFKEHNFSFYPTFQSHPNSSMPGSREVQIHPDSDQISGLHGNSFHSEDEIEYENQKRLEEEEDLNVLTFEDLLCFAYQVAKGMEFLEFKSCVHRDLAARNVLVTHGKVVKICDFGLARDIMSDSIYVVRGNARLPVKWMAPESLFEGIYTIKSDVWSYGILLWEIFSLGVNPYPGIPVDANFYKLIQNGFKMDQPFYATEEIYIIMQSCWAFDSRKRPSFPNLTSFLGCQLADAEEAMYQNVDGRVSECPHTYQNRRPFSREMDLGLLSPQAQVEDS
Description: Test Example 6 Determination of Binding Affinity of the Present Compounds on Protein Kinases In Vitro
KINOMEscan screening platform of Discovery X company (USA) was used to identify the binding targets of the present compounds to protein kinases. Compound 66 of the present invention was dissolved in DMSO (Sigma Aldrich) at concentrations of 1000 nM, 10 nM and 1 nM, and then was subjected to in vitro binding reaction with 468 labeled protein kinases. Two samples were taken in parallel for each assay sample.
The lower the percentage of the test compound to the solvent control, the stronger the binding affinity of the test compound to the protein kinase in vitro.

remaining binding at 0.001 µM (protein kinases; 1 nM): 88% | remaining binding at 0.01 µM (protein kinases; 10 nM): 17% | remaining binding at 1 µM (protein kinases; 1000 nM): 0.25%
SMILES: COCCOc1cc2nccc(Oc3ccc(NC(=O)Nc4cc(C(C)(C)C)n[nH]4)c(Cl)c3)c2cc1NC(C)=O [Compound 66, N-[4-{4-[3-(5-tert-butyl-2H-pyrazol-3-yl)-ureido]-3-chloro-phenoxy}-7-(2-methoxy-ethoxy)-quinolin-6-yl]-acetamide]
T/C (%) (NCI-H1581; 2.5 mg/kg i.p once a day): 7.91% | TGI (%) (NCI-H1581; 2.5 mg/kg i.p once a day): 92.09% | T/C (%) (NCI-H1581; 5 mg/kg i.p once a day): 1.07% | TGI (%) (NCI-H1581; 5 mg/kg i.p once a day): 98.93% | T/C (%) (AN3-CA): 1.37% | TGI (%) (AN3-CA): 98.63%
